Experimental data from ChEMBL document CHEMBL1201862, “PubChem BioAssay data set” (2004).
Active and inactive are the calls of the source.

Columns and labels:
Cytochrome P450 2C19 = Cytochrome P450 2C19 (Homo sapiens, UniProt P33261); test: Cytochrome panel assay with activity outcomes. Panel member name: p450-cyp2c19 Compounds with AC50 equal or less than 10 uM are considered active; format: functional; settings: read-out: AC50
Protein skinhead-1 = target: T1, Protein skinhead-1 (Caenorhabditis elegans, UniProt P34707); format: functional
T1 sequence (P34707 whole entry): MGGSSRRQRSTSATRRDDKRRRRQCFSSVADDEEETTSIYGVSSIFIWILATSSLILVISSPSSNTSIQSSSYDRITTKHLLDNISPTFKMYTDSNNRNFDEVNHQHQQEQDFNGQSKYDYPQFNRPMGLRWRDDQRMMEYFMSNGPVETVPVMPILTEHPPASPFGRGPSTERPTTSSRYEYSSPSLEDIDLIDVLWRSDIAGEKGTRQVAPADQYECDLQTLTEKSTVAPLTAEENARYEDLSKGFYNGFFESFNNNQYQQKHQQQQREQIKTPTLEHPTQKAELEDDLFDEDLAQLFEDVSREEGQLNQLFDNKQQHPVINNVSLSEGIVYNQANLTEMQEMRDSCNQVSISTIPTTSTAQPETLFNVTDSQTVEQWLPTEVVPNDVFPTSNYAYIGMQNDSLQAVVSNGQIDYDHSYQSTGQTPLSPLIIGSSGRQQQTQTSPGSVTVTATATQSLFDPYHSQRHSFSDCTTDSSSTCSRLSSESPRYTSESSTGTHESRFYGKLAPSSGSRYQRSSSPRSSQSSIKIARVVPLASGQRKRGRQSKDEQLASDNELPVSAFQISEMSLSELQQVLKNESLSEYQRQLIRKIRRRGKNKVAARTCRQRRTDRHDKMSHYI

[1] = viability of uninfected HEp-2 cells – cell-based, HTS, cytotoxicity control for RSV inhibitor project, dose response (AID 2410); format: functional; settings: human respiratory syncytial virus
[2] = target: T2, Type-1 angiotensin II receptor (Homo sapiens, UniProt P30556); test: antagonism of angiotensin II type 1 receptor – cell-based, uHTS hits, selectivity assay for APJ receptor antagonist project, dose response (AID 463214); format: functional;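 note: antagonist potency against angiotensin II stimulated AT1 response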
T2 sequence (P30556 whole entry): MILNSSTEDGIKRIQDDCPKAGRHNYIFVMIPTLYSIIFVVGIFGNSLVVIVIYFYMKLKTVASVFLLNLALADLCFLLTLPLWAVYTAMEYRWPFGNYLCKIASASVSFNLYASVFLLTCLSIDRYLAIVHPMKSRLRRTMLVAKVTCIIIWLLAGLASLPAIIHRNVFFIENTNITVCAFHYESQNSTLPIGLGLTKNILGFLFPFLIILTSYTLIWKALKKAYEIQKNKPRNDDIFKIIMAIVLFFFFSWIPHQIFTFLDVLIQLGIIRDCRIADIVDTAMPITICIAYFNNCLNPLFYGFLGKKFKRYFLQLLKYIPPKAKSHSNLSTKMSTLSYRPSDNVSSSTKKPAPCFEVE

Beta-galactosidase = Beta-galactosidase (Escherichia coli, UniProt Q8VNN2); test: PubChem AID 485352; format: functional
Chain of Beta-galactosidase (Q8VNN2 whole entry): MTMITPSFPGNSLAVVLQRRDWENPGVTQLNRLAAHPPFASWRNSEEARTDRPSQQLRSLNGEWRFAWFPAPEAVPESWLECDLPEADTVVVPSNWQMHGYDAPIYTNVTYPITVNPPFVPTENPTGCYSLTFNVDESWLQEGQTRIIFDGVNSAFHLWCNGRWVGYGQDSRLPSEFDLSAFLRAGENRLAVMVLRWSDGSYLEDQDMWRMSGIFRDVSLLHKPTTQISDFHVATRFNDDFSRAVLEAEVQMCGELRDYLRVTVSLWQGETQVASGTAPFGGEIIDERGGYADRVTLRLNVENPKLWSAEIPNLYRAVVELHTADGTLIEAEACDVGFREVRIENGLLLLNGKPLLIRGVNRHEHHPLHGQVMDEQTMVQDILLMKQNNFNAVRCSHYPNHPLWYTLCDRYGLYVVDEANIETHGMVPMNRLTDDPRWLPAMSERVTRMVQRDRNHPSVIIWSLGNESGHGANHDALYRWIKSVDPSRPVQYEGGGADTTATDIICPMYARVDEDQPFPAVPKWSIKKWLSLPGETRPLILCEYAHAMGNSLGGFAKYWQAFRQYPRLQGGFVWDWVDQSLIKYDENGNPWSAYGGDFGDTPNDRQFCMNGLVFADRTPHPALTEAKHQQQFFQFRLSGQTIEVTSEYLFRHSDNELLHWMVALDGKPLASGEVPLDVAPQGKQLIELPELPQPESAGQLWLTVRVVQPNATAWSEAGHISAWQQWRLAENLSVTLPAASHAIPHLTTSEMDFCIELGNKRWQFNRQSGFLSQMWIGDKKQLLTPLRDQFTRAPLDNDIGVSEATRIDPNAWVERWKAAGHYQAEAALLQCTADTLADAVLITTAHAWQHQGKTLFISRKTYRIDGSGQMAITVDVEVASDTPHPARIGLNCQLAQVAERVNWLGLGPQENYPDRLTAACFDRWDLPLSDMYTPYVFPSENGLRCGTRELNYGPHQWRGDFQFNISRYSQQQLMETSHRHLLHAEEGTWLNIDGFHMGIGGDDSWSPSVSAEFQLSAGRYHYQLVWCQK

[3] = Trypanosoma cruzi growth suppression in host cells – NIH3T3 host cells, beta-gal luminescence, confirmation (AID 2044); format: functional, cell-based;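 note: intracellular parasites grown in NIH/3T3 mouse fibroblasts as host cells; luminescent beta-galactosidase reporter signal from transgenic T. cruzi replicating inside host cells; inhibitors lower the luminescence signal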
[4] = NIH3T3 cell viability loss – ATP luminescence, mouse fibroblasts, counter-screen, dose response (AID 2010); format: functional, cell-based;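 note: cells exposed to compound for about 90 hours before reading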
[5] = microbe, parasite or virus in culture; format: functional; settings: Mycobacterium tuberculosis
[6] = target: Heat shock protein HSP 90-alpha (Homo sapiens, UniProt P07900); format: functional, organism-based
[7] = loss of viability in HepG2 cells – cell-based, CellTiter-Glo, cherry-picked, cytotoxicity control for Shn3 inhibitor project, dose response (AID 624134); format: functional
[8] = non-specific 3'UTR reporter inhibition in Clone20-Shn3RL – cell-based, Renilla luciferase, cherry-picked, counter-screen for Shn3 inhibitor project, dose response (AID 624133); format: functional
[9] = reduction of Shn3 3'UTR-driven luciferase in osteoblasts – cell-based, Clone20 osteoblasts, firefly luciferase, cherry-picked, dose response (AID 624132); format: functional;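 note: firefly luciferase luminescence from reporter carrying the Shn3 3'UTR in osteoblasts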
Estrogen receptor beta = Estrogen receptor beta (Homo sapiens, UniProt Q92731);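 note: recombinant ER-beta bound to coactivator SRC1 peptide in presence of estradiol agonist; inhibitors block coactivator peptide binding and lower the FRET signal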
Chain of Estrogen receptor beta (Q92731 whole entry): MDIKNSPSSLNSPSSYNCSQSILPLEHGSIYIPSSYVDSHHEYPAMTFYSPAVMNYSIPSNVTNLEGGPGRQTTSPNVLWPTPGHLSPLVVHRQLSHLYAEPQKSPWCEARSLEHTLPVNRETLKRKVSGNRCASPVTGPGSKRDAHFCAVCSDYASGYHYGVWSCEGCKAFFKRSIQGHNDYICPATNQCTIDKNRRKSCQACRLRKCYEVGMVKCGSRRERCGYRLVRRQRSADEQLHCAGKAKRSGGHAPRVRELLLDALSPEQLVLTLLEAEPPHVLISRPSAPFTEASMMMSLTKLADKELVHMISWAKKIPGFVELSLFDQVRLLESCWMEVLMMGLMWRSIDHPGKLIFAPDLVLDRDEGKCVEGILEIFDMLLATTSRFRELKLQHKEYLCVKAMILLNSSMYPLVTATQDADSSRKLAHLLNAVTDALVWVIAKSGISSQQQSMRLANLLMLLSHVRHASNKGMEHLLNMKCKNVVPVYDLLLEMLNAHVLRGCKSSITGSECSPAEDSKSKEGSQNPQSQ

[10] = viability loss in THP-1 monocytes – THP-1 cells, cytotoxicity control for Vif-APOBEC3G degradation inhibitor project, dose response (AID 1117359); format: functional; settings: THP-1
[11] = fluconazole-exposed Candida albicans growth modulators – fluorescence, retest, confirmation (AID 2467); format: functional, cell-based
[12] = NIH-3T3 fibroblast cytotoxicity, dose response, cytotoxicity control, cell-based, fluorescence, Alamar Blue, secondary assay (AID 2327); format: functional;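 note: NIH-3T3 mouse fibroblasts cultured with fluconazole at 8 µg/mL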
Leucine aminopeptidase = target: T3, Leucine aminopeptidase (Plasmodium falciparum 3D7, UniProt Q8IL11); test: P. falciparum M17LAP inhibitors, primary screen, biochemical, fluorogenic H-Leu-NHMec substrate, 1536-well (AID 1619); format: functional
T3 sequence (Q8IL11 whole entry): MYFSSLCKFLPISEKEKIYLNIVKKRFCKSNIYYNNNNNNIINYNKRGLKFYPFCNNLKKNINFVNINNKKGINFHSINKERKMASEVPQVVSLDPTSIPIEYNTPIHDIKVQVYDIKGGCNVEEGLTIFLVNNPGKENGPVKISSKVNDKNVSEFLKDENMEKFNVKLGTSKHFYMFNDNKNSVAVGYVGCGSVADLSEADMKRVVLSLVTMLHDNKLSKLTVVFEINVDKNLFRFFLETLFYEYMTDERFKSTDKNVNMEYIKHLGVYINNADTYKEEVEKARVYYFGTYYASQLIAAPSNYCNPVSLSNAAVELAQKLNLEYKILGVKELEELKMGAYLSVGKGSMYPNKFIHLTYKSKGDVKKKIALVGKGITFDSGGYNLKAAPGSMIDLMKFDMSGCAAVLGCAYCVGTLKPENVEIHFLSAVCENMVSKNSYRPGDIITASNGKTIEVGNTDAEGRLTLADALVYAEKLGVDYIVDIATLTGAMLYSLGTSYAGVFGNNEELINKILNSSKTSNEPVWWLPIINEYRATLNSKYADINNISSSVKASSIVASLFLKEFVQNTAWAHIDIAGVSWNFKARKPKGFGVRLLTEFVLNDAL

[13] = target: FAD-linked sulfhydryl oxidase ALR (Homo sapiens, UniProt P55789); test: ALR-catalysed DTT oxidation blockers – biochemical, H2O2 detection, luminescence, cherry-pick, dose response (AID 493248)
Chain of FAD-linked sulfhydryl oxidase ALR (P55789 whole entry): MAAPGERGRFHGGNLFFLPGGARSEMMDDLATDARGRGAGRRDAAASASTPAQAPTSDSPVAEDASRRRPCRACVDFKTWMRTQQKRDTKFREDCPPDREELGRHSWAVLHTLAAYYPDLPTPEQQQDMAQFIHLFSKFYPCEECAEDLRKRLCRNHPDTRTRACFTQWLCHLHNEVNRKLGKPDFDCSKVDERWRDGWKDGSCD

[14] = target: T4, Rac GTPase-activating protein 1 (Homo sapiens, UniProt Q9H0H5); test: blockers of MgcRacGAP-driven Rac1 GTP hydrolysis – biochemical, ADP Hunter fluorescence, primary and confirmatory, confirmation (AID 624330); format: functional
T4 sequence (Q9H0H5 whole entry): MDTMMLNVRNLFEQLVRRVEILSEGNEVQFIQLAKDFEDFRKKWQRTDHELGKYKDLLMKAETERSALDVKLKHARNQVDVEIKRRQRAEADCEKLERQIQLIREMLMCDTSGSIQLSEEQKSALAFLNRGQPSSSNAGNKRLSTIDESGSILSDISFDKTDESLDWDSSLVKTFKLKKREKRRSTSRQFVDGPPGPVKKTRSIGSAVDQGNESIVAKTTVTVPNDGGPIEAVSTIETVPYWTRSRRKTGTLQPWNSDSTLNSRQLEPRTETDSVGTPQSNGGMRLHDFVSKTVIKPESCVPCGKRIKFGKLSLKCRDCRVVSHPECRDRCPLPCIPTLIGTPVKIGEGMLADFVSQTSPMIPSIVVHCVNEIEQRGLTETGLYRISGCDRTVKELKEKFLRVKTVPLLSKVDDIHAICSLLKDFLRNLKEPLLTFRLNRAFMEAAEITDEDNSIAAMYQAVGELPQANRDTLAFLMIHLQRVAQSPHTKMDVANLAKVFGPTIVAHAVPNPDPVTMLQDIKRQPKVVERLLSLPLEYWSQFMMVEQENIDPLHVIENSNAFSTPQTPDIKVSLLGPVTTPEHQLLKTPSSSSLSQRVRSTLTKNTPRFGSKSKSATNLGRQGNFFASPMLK

[15] = intracellular Trypanosoma cruzi inhibitors in host cells – cell-based, plate reader, cherry-pick samples, set 3, dose response (AID 651818); format: functional;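 note: compounds incubated with infected cells for about four days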
Paired box protein Pax-8 = Paired box protein Pax-8 (Homo sapiens, UniProt Q06710); test: PAX8 transcriptional activity inhibition in RMG-I – RMG-I cells, luciferase, cherry-pick, dose response (AID 687027); format: functional, cell-based;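 note: luciferase reporter driven by Pax8 target thyroperoxidase promoter measured by SteadyGlo luminescence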
Chain of Paired box protein Pax-8 (Q06710 whole entry): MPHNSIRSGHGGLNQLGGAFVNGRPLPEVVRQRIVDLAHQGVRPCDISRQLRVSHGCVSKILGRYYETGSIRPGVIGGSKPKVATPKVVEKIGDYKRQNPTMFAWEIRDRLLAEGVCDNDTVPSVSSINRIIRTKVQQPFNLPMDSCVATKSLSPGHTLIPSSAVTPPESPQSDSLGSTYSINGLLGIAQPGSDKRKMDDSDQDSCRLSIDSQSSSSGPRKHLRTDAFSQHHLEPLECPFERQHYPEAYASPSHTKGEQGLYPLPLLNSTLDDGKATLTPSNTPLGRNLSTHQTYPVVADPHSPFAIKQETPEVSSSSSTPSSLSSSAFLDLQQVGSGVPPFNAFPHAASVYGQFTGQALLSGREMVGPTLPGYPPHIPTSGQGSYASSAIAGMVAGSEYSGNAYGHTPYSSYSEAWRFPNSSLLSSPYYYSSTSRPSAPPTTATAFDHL

[16] = OVCAR8 cell viability loss – plate reader, dry powder samples, PAX8 project, dose response (AID 743197); format: functional, cell-based; settings: OVCAR-8
[17] = OVCAR-3 cell viability loss – plate reader, dry powder samples, PAX8 inhibitor project, dose response (AID 743044); format: functional, cell-based
[18] = viability of PTEN-deleted HCT116 cells – cell-based, HCT116 PTEN knockout, dose response (AID 1047); format: functional;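 note: HCT116 colon tumor cells with PTEN knocked out; cells exposed to compound for 60 hours before readout; potency for loss of cell viability measured by luminescence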
[19] = viability of HCT116 lacking mutant beta-catenin – cell-based, human colon tumor, dose response (AID 1045); format: functional;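 note: HCT116 colon tumor cells with beta catenin knocked out; cells exposed to compound for 60 hours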

Chain of Cytochrome P450 2C19 (P33261 whole entry): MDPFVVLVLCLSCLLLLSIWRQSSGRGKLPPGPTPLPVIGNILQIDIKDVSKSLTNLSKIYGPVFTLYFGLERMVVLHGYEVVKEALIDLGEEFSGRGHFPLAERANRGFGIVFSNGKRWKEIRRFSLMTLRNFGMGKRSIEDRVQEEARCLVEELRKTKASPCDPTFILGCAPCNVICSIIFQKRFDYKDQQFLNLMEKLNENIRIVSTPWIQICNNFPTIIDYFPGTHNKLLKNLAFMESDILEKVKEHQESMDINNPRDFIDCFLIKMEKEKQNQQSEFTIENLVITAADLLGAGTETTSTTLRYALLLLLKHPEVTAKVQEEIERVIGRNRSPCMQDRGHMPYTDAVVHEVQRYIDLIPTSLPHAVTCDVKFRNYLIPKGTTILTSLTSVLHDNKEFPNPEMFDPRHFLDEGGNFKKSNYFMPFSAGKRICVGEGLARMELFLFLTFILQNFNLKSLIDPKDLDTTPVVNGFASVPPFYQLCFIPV

CCOc1ccc2nc(NC(=O)c3ccc(S(=O)(=O)N4CCOCC4)cc3)sc2c1
AC50 (Cytochrome P450 2C19): 2.82 µM (inconclusive)
IC50 (Protein skinhead-1): > 100 µM (inactive)

O=C(Nc1ccc(SC(F)F)cc1)c1ccccc1F
CC50 [1]: > 50 µM (active)
IC50 (Protein skinhead-1): 23.1 µM (active)

O=C(COC(=O)c1ccc(Br)o1)c1ccc(S(=O)(=O)N2CCCCC2)cc1
IC50 [2]: 23.2 µM (not active)
EC50 (Beta-galactosidase): > 40 µM (inactive)

CC1(c2cc([N+](=O)[O-])cc([N+](=O)[O-])c2)CC(C)(C)N(C(=O)c2ccccc2)c2ccccc21 (stereo not drawn)
EC50 [3]: 0.17 µM (active)
EC50 [4]: 10.7 µM (active)
CC50 [5]: > 40 µM (active)

Cc1cccc2cc(CN(Cc3nnnn3C3CCCCC3)C3CCCC3)c3nnnn3c12
AC50 [6]: 2.18 µM (active)

COc1ccc(-n2nnnc2-c2cnc(N3CCCC3)nc2C(F)(F)F)cc1
AC50 [7]: 50.8 µM (active)
AC50 [8]: 4.77 µM (active)
AC50 [9]: 4.75 µM (active)

c1ccc(-c2nc(-c3ccncc3)no2)cc1
IC50 (Protein skinhead-1): 16.3 µM (active)

O=C(NCc1ccc2c(c1)OCO2)c1ccc(Br)cc1
AC50 [6]: 4.38 µM (active)

C=CCn1c(SCc2cc(C(=O)OC)c(C)o2)nnc1-c1ccncc1
IC50 (Estrogen receptor beta): > 50 µM (not active)

CCOC(=O)C1=NNC(C(=O)c2ccc(Cl)cc2)C1c1ccccc1 (stereo not drawn)
IC50 [2]: 39.9 µM (not active)
EC50 (Beta-galactosidase): > 40 µM (inactive)

CCCCc1ccc(NC(=O)CC(C)(C)C)cc1
CC50 [10]: > 40 µM (active)

COC(=O)c1ccc(C(=O)OC)c(NC(=O)CSc2cccc[n+]2[O-])c1
EC50 [11]: 1.34 µM (active)
EC50 [12]: > 160 µM (inconclusive)
CC50 [5]: > 40 µM (active)

COc1ccccc1NC(=O)c1ccc(CN2CCOCC2)cc1
IC50 (Protein skinhead-1): > 100 µM (inactive)

CCN(CC)CC(=O)c1ccc(-c2ccccc2)cc1
IC50 [2]: 18.8 µM (active)
IC50 (Leucine aminopeptidase): 60.2 µM (active)
EC50 (Beta-galactosidase): > 40 µM (inactive)

O=S(=O)(c1ccc(N2CCCC2)cc1)C(F)(F)F
IC50 (Protein skinhead-1): > 100 µM (inactive)

Nc1cc([N+](=O)[O-])ccc1Nc1ccc(O)cc1
AC50 [13]: 0.269 µM (active)
IC50 [14]: 38.2 µM (active)
CC50 [5]: > 40 µM (active)

Cc1sc(NC(=O)C2=COCCO2)nc1-c1ccc(Cl)cc1
IC50 (Protein skinhead-1): > 100 µM (inactive)

C[C@H]1CN([C@@H](C)CO)C(=O)Cc2cc(NC(=O)Nc3cccc4ccccc34)ccc2O[C@@H]1CN(C)Cc1ccc(C(F)(F)F)cc1
AC50 [15]: 2.3 µM (active)

Cc1cc(C(=O)Nc2cccc3c2O[C@@H](CN(C)Cc2ccc(C(=O)Nc4ccccc4N)cc2)[C@@H](C)CN([C@H](C)CO)C3=O)n(C)n1
AC50 [15]: 2.45 µM (active)

C[C@@H]1CN([C@@H](C)CO)C(=O)Cc2cc(NC(=O)Nc3ccc(C(F)(F)F)cc3)ccc2O[C@@H]1CN(C)Cc1ccc(Cl)c(Cl)c1
AC50 [15]: 1.85 µM (active)

C[C@H](CO)N1C[C@H](C)[C@H](CN(C)S(=O)(=O)c2cccs2)Oc2c(NC(=O)c3cnccn3)cccc2C1=O
AC50 [15]: 2.44 µM (active)

C[C@@H]1CN([C@H](C)CO)C(=O)c2cccc(NC(=O)Nc3ccc(C(F)(F)F)cc3)c2O[C@@H]1CN(C)Cc1ccc(Cl)c(Cl)c1
AC50 [15]: 2.26 µM (active)

C[C@H](CO)N1C[C@H](C)[C@H](CN(C)Cc2ccc(Oc3ccccc3)cc2)Oc2c(NC(=O)CCCCCC(=O)Nc3ccccc3N)cccc2C1=O
AC50 [15]: 2.36 µM (active)

C[C@H]1CN([C@@H](C)CO)C(=O)c2cc(NS(=O)(=O)c3ccc(Cl)cc3)ccc2O[C@H]1CN(C)Cc1ccc(Cl)c(Cl)c1
AC50 (Paired box protein Pax-8): 7.5 µM (active)
AC50 [16]: > 70 µM (inactive)

C[C@@H]1CN([C@H](C)CO)C(=O)c2cc(NC(=O)Nc3ccc(C(F)(F)F)cc3)ccc2O[C@@H](C)CCCCO[C@H]1CN(C)C(=O)NC1CCCCC1
AC50 (Paired box protein Pax-8): 2.8 µM (active)
AC50 [16]: 47.2 µM (active)
AC50 [17]: 27.4 µM (active)

C[C@H](CO)N1C[C@H](C)[C@@H](CN(C)C(=O)C2CCCCC2)OCCCC[C@H](C)Oc2ccc(NS(=O)(=O)c3ccc(Cl)cc3)cc2C1=O
AC50 (Paired box protein Pax-8): 8.51 µM (active)
AC50 [17]: 24.4 µM (active)

C/C(=C\C(=S)Nc1ccccc1)Nc1ccc2ccccc2c1
CC50 [5]: 36.2 µM (active)

CC(C)N(C(=O)CO/N=C/c1cccc([N+](=O)[O-])c1)C(C)C
CC50 [10]: > 40 µM (active)

CCNc1nc(NC(C)(C)C)nc(N2CCCC2)n1
EC50 [18]: 25 µM (active)
EC50 [19]: 32.9 µM (active)
